This is an account of results in US20180009764A1, “METHOD FOR TREATING MACROPHAGE MIGRATION INHIBITORY FACTOR (MIF)-IMPLICATED DISEASES AND CONDITIONS WITH IODO PYRIMIDINE DERIVATIVES” (UNIVERSITY OF LOUISVILLE RESEARCH FOUNDATION, INC., priority 2009, published 2018).

Data set [1] relates to Chick Chorioallantoic Membrane (CAM). The experiment in a line: CAM assay with matrigel plugs. Format: in vivo. Here is the method: (§1) 8 groups with 10 embryos in each group were used in the experiment described below. Fresh fertile eggs were incubated for 3 days in a standard egg incubator at 37° C. for 3 days. On Day 3, eggs were cracked under sterile conditions and embryos were placed into 20×100 mm plastic plates and cultivated at 37° C. in an embryo incubator with a water reservoir on the bottom shelf. Air was continuously bubbled into the water reservoir using a small pump so that the humidity in the incubator is kept constant. On Day 6, a sterile silicon “o” ring was placed on each CAM and test compound dissolved in 0.5% methylcellulose was placed into each “o” ring in a sterile hood. Paclitaxel was used as a positive control. Embryos were returned to the incubator after addition of test material. Control embryos received 10 μL of vehicle alone. On Day 8, embryos were removed from the incubator and kept at room temperature while blood vessel density were determined under each “o” ring using an image capturing system at a magnification of 160×. The blood vessel density was measured using an angiogenesis scoring system in that arithmetic numbers 0 to 5 (or exponential numbers 1 to 32) are used to indicate number of blood vessels present at the treatment sites on the CAM. Number 5 represents the highest density and 0 represents no angiogenesis. The percent of inhibition at each dosing site was calculated using the score recorded for that site divided by the mean score obtained from the appropriate control samples for each individual experiment. The percent of inhibition for each dose of a given compound was calculated by pooling all results obtained for that dose from 8-10 embryos.
Another experiment was performed using a protocol similar to the one described above but using matrigel plugs instead of o ring to deliver the test material to the CAM. Results are summarized in Table 9 below and show a statistically significant inhibition of angiogenesis at the high concentrations of test material.

For data set [2] the test system is unchanged. The experiment in a line: Chick chorioallantoic membrane (CAM) assay, o ring. In kind it is in vivo. The settings on record: for Blood Vessel Density: o ring. Here is the method:
as §1

The next data set has as its target T1, MIF (Homo sapiens, UniProt P14174).
T1 construct: the enzymatic activity of MIF present in cell lysates; endogenous in cells
T1 sequence (P14174 2-115 limits assumed): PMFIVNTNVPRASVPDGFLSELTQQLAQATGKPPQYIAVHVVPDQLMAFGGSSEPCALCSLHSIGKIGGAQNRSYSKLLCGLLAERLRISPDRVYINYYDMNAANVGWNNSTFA
The experiment in a line: MIF cell lysate enzymatic inhibition. In kind it is biochemical. Conditions: cell lysates. Here is the method: Normal or transformed cell lysates can be used to determine the concentration inhibiting the enzymatic activity of MIF present in cell lysates. Cells are cultured in the appropriate media to the required number of cells, collected, and lysed. Compounds to be characterized are solubilized in DMSO and serial dilutions are performed in order to obtain a range of concentrations including complete and no quantifiable inhibition.

The test system of a further data set is Du 145. The experiment in a line: Inhibition of tumor cells proliferation (CellTiter Glo). In kind it is cell-based. Conditions: Homo sapiens, 72 hours. Here is the method:
Inhibition of the proliferation of tumor cells was investigated in vitro in several tumor cell lines. Cells of the desired tumor cell line were plated at 2×10^5 cells/ml in 96 well plates. Twice the indicated concentrations of the compounds of the invention were added to cells the following day in an equal volume of media. 72 hours later, cells were lysed and subjected to ATP determination using the CellTiter Glo-Luminescent Cell Viability Assay kit (Promega, Madison, Wis.). Experiments were done in triplicate. Results for the inhibition of cells proliferation are reported as IC50 (the concentration leading to a 50% inhibition of proliferation of the cell population) and are listed in Table 6. FIGS. 3 and 4 show bar graphs comparing the IC50s of specific embodiments of compounds of the invention across multiple tumor cell lines.

In the next data set the test system is LOX-IMV1 tumor cell line. The data set can be described thus: Inhibition of cell migration (Oris Cell Migration Assay). In kind it is cell-based. Conditions: 72 hrs, even at low concentrations (0.03 μM), FIG. 7. Here is the method: The LOX-IMV1 tumor cell line was used to determine the inhibition of cell migration using the Oris Cell Migration Assay kit (Promega, Mich.). Briefly, adherent cells were seeded into each well of the kit according to kit instructions. Concentrations of cells in the migration zone were determined to calculate IC50 values. Prior to the migration assay, cell proliferation IC50s were determined to differentiate between inhibition of proliferation and migration. […] A slightly modified method was also used to determine the inhibition of invasion.

A short description of data set [3]: Caco-2 cell permeability and transport. Format: in vitro ADME. Conditions: human, Caco-2, pH 7.4. Also on record: Caco-2 Permeability Papp B-A / Caco-2 Permeability Papp A-B: unit not given here. Here is the method: (§2) Cell permeability and transport mechanisms in Caco-2 and MDR1-MDCK monolayers experiments were performed in triplicate in the apical-to-basolateral and basolateral-to-apical direction using […]® wells containing either Caco-2 or MDR1-MDCK monolayers. A modified Hanks buffer pH 7.4 was used in both reservoir and receiver wells with the addition of 1% BSA in the receiver side. Confluent monolayers were used and their integrity was verified using reference compounds (Atenolol as a low permeability reference compound and Propanolol as a high permeability reference compound). A sample in the basolateral and apical sides was taken after 2 hours and the concentration measured by LC/MS-MS.

In another data set the test system is Caco-2 monolayers. The experiment in a line: Caco-2 cell permeability and transport. In kind it is in vitro ADME. The arrangement: Caco-2 Permeability Papp B-A / Caco-2 Permeability Papp A-B: unit not given here. The settings on record: for Caco-2 Permeability Papp B-A: basolateral-to-apical. Here is the method: as §2
Data set [4] in a line: Microsomal stability in human liver microsomes. In kind it is in vitro ADME. Conditions: both, human, microsomes, pH 7.4. Here is the method: Stability in human liver microsomes was tested over […] at 37° C. using pooled mixed gender human liver microsomes. Liver microsomes were prepared at 1.0 mg/ml of microsomal protein in a 100 mM potassium phosphate pH 7.4 buffer with 1 mM NADPH. The media was incubated at 37° C. with the compound in solution in DMSO. The concentration of the compound was followed by LC/MS-MS as a function of time. Samples were assayed at t=0, 30, 60 and 120 minutes. Testosterone was used as a positive control. The same experiment was performed with mouse liver microsomes instead of human liver microsomes.

A short description of the next data set: in vitro. Conditions: human, plasma, Human Plasma Protein Binding % Bound. Format: in vitro ADME. The source says:
Plasma protein binding was ascertained using dialysis equilibrium methods known in the art.

A short description of data set [5]: Pharmacokinetics parameters in rats. Conditions: rat, plasma. Format: in vivo. Here is the method:
The pharmacokinetic parameters of several compounds were investigated in rodents. Both oral and iv administration were investigated in rats. Blood samples were collected over time; plasma was analyzed using an LC/MS-MS method. Pharmacokinetic parameters were calculated using Win-NonLin. Terminal plasma half-lives were 7.10 hr for ACT-MIF-001, 1.66 hr for ACT-MIF-002, and 1.50 hr for ACT-MIF-003. […] The volume of distribution values were 72666 mL/kg for ACT-MIF-001, 2118 mL/kg for ACT-MIF-002, and 1926 mL/kg for ACT-MIF-003.

In the next data set the test system is MDR1-MDCK monolayers. The data set can be described thus: MDR1-MDCK cell permeability and transport. In kind it is in vitro ADME. Here is the method: as §2
Another data set deals with p53. The experiment in a line: p53 up regulation, p53 luciferase assay. In kind it is cell-based. Conditions: 10 μM; FIG. 5. Here is the method:
The up regulation of p53 was determined using a commercially available p53 luciferase assay kit. 1×10^5 cells/ml were plated in a 24 well plate and allowed to adhere overnight. MIF antagonists were added to the cells at the indicated concentrations for 16 hours and transiently co-transfected with 0.125 μg/well of p53-responsive luciferase promoter plasmid (Promega, Madison, Wis.) together with 0.0125 μg/well Renilla pRL-null plasmid (Promega) using Lipofectamine (Invitrogen) transfection reagent. After 24 hrs, Firefly and Renilla luciferase activities were measured by the Dual Luciferase Reporter Assay System (Promega, Madison, Wis.) on a TD-20/20 luminometer (Turner Designs).

Regarding `CC(=O)O[C@H]1C(=O)[C@@]2(C)[C@H]([C@H](OC(=O)c3ccccc3)[C@]3(O)C[C@H](OC(=O)[C@H](O)[C@@H](NC(=O)c4ccccc4)c4ccccc4)C(C)=C1C3(C)C)[C@]1(OC(C)=O)CO[C@@H]1C[C@@H]2O` [Paclitaxel, reference compound], the “Blood Vessel Counts” value in [1] (2 nM per CAM) is reported as 15.5 ± 2.1. Also, the “Blood Vessel Density” value in data set [2] (6 nM per CAM) was found to be 2.8 ± 0.7.

`Ic1cc(-c2cccnc2)ncn1` [ACT-MIF-006, 4-Iodo-6-(pyridin-3-yl)pyrimidine]: the IC50 against MIF was 0.25 µM; in the data set on Du 145 it was 36.7 µM. Moreover, the “Blood Vessel Counts” value in data set [1] (0.3 nM per CAM) is on record as 38.8 ± 3.5; in data set [1] (3 nM per CAM), 35.8 ± 5.4; in data set [1] (30 nM per CAM), 33.5 ± 1.7. Also, in the data set on LOX-IMV1 tumor cell line, the “Inhibition of cell migration” value is reported as “significant inhibition of migration”. Further, the efflux ratio at 2 h in data set [3] was 1.4. The “Caco-2 Permeability Class” value in the data set with Caco-2 monolayers was “High”. The “Metabolic Stability in Human Microsomes % Remaining” value in data set [4] (0 h) came out at 100%; in [4] (1 h), 82%.

With `Ic1cc(-c2ccsc2)ncn1` [ACT-MIF-022, 4-Iodo-6-(thiophen-3-yl)pyrimidine], in the data set with Du 145, the concentration for half-maximal inhibition (IC50) is less than 40 µM.

With `CC(=O)CC(c1ccccc1)c1c(O)c2ccccc2oc1=O` (centres unmarked) [Warfarin, reference compound], the fraction unbound in “in vitro” turned out to be 0.01.

`CC(=O)Nc1cccc(-c2cc(I)ncn2)c1` [ACT-MIF-021, 4-Iodo-6-(3-acetylaminophenyl)pyrimidine]: on MIF, inhibition was half-maximal at 0.57 µM (IC50). The “Metabolic Stability in Human Microsomes % Remaining” value is recorded as 100% in data set [4] (0 h) and 73% in data set [4] (1 h).

Turning to `Fc1ncccc1-c1cc(I)ncn1` [ACT-MIF-011, 4-Iodo-6-(2-fluoropyridin-3-yl)pyrimidine], the efflux ratio at 2 h in data set [3] stood at 0.6. For the same compound, the “Caco-2 Permeability Class” value with Caco-2 monolayers is given as “High”.

As to `COc1ccc(-c2cc(I)ncn2)c(F)c1F` [ACT-MIF-001, 4-Iodo-6-(2,3-difluoro-4-methoxyphenyl)pyrimidine], in data set [5] (intravenous, read-out: Volume of distribution), the Vd was determined as 72.7 L/kg. In data set [5] (iv, after i.v. administration), this compound showed a clearance of 763 mL/min/kg. Moreover, the half-life in data set [5] (read-out: Terminal plasma half-life (converted)) was 7.1 h. The IC50 on MIF was 0.037 µM; with Du 145, less than 10 µM. Also, the Brain penetration classification entry in the data set with MDR1-MDCK monolayers is listed as “Low”. In the data set with MDR1-MDCK monolayers, the “P-gp Substrate” value is “No”. For the same compound, the Efflux result in the data set with MDR1-MDCK monolayers (class in words) is reported as “Low”. In the data set “in vitro”, this compound had a fraction unbound of 0.017. Besides, the “Caco-2 Permeability Class” value in the data set on Caco-2 monolayers was “Low”. In addition, the “Caco-2 Permeability Papp A-B” value in the data set with Caco-2 monolayers (apical-to-basolateral, pH 7.4, 2 hours) was less than 0.1. For the same compound, in the data set with Caco-2 monolayers (pH 7.4, 2 hours), the “Caco-2 Permeability Papp B-A” value is less than 0.1. For the same compound, the “Metabolic Stability in Human Microsomes % Remaining” value is reported as 100% in data set [4] (0 h) and less than 2% in [4] (1 h). Also, the “Blood Vessel Density” value in data set [2] (0.3 nM per CAM) was found to be 10.5 ± 3.4; in data set [2] (3 nM per CAM) it was 4.1 ± 0.8; in [2] (30 nM per CAM), 1.8 ± 0.3. The Anti-angiogenic properties result in [2] (CAM assay, in words) is given as “high anti-angiogenic properties”.

With `Ic1cc(-c2ccnc3ccccc23)ncn1` [ACT-MIF-036, 4-Iodo-6-(quinolin-4-yl)pyrimidine], on MIF, the IC50 was determined as 0.23 µM.

Turning to `Ic1cc(-c2cncc3ccccc23)ncn1` [ACT-MIF-025, 4-Iodo-6-(isoquinolin-4-yl)pyrimidine], the efflux ratio at 2 h in [3] was 1.5. The “Caco-2 Permeability Class” value in the data set on Caco-2 monolayers is reported as “Low”.

In the case of `CCOc1ccc(-c2cc(I)ncn2)cc1F` [ACT-MIF-033], the IC50 against MIF was 0.115 µM; in the data set with Du 145, less than 5 µM. Also, the p53 regulation entry in the data set with p53 is “implicated in p53 regulation”. Further, the efflux ratio at 2 h in data set [3] amounted to 1.1. Further, in the data set on Caco-2 monolayers, the “Caco-2 Permeability Class” value is reported as “High”. For the same compound, the “Caco-2 Permeability Papp B-A” value with Caco-2 monolayers (pH 7.4, 2 hours) is recorded as 3.0. The “Metabolic Stability in Human Microsomes % Remaining” value worked out at 100% in data set [4] (0 h) and 82% in [4] (1 h).

For `Fc1ccc(-c2cc(I)ncn2)c(F)c1` [ACT-MIF-017, 4-Iodo-6-(2,4-difluorophenyl)pyrimidine], the IC50 against MIF was 0.19 µM; in the data set with Du 145, less than 10 µM. Also, the “Metabolic Stability in Human Microsomes % Remaining” value in [4] (0 h) came to 100%; in data set [4] (1 h) it was 0%.

Take `NC(=O)c1ccc(-c2cc(I)ncn2)cc1` [ACT-MIF-034, 4-Iodo-6-(4-aminocarbonylphenyl)pyrimidine]: the results for the IC50 against MIF and with Du 145 were 0.27 µM and less than 100 µM, respectively. For the same compound, the p53 regulation result with p53 was “implicated in p53 regulation”.

For `Ic1cc(-c2cccs2)ncn1` [ACT-MIF-030, 4-Iodo-6-(thiophen-2-yl)pyrimidine], the p53 regulation entry with p53 is “implicated in p53 regulation”. For the same compound, the “Blood Vessel Counts” value in [1] (0.3 nM per CAM) was 35.6 ± 1.0; in data set [1] (3 nM per CAM), 32.7 ± 3.2; in data set [1] (30 nM per CAM), 28.1 ± 2.0.
